The target in test [1] is T1, recombinant mouse sEH (MsEH) (Mus musculus, UniProt P34914).
T1 sequence (P34914 1-554): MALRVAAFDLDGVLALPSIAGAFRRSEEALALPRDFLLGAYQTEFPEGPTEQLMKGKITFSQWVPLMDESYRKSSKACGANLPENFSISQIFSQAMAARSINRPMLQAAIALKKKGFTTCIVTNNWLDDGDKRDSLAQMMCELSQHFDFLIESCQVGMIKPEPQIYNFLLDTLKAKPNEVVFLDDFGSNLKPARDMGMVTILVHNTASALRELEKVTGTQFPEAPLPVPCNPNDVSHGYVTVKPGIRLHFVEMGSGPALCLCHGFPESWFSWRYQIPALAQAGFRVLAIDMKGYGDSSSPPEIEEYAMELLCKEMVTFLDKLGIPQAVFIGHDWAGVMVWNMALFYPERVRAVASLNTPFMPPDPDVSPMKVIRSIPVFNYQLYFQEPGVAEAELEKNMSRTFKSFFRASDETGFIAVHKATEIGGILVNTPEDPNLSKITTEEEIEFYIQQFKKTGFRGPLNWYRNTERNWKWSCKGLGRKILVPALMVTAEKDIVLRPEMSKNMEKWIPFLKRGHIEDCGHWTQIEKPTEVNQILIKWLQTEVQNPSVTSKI
As to the kind of experiment: Inhibition of recombinant mouse sEH (MsEH). It is filed as biochemical.

The next test addresses T2, Human sEH (HsEH) (Homo sapiens, UniProt P34913).
T2 sequence (P34913 1-555): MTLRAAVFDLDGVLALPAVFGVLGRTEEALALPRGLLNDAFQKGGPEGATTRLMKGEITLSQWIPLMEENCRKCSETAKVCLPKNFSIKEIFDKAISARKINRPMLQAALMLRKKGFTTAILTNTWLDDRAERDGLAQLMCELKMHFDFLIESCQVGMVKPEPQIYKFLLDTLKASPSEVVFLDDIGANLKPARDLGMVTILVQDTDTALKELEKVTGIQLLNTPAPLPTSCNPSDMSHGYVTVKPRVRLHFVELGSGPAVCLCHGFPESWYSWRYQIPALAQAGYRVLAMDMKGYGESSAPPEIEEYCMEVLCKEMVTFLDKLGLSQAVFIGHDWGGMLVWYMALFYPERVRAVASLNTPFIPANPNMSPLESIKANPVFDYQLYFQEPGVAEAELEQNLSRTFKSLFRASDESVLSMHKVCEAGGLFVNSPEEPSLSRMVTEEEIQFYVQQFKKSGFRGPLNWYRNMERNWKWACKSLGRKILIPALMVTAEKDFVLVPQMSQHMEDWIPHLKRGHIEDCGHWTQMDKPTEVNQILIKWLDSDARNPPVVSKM
As to the kind of experiment: Inhibition of recombinant human sEH (HsEH). The format is biochemical. As to conditions: HsEH 0.26 μM.

Where [2] appears, read: Table 1, MsEH 0.13 μM, read-out: Mouse sEH IC50.
Setting [3] is: Table 2, MsEH 0.13 μM, read-out: Mouse sEH IC50.

Like-named read-outs stand apart in the source and are kept apart here.

Usually IC50 stands for the concentration that gives 50% inhibition. With `O=C(Nc1nnn[nH]1)NC1CCCCC1` [compound 533], the figures for the IC50 (in test [1] (setting [2]); at Human sEH (HsEH) (Table 1)) were 0.05 ± 0.1 µM and 0.1 ± 0.01 µM, respectively.

As to `O=C(NCCCN1CCOCC1)NC1CCCCC1` [compound 377], the IC50 was 0.7 ± 0.1 µM in test [1] (setting [2]) and 17.8 ± 0.7 µM on Human sEH (HsEH) (Table 1). On to `O=C(NC1CCCCC1)Oc1ccc2ccccc2c1` [compound 110], for which the IC50 came to 0.21 ± 0.01 µM in test [1] and 0.35 ± 0.01 µM on Human sEH (HsEH) (Table 1).

Take `O=[N+]([O-])c1ccc([C@@H]2O[C@H]2CO)cc1` [R=4-NO2—C6H4, R′=H, X—Y=CH—OH, S, S]: the IC50 in test [1] (setting [3]) was 1.6 ± 0.6 µM. With `OC(c1ccccc1)C1OC1c1ccc(F)cc1` (racemic) [R=4-F-C6H4, R′=C6H5, X—Y=CH—OH, ±], the IC50 in test [1] (setting [3]) came to 72 ± 16 µM; on Human sEH (HsEH) (Table 2), 18 ± 2 µM. Consider `CCCCCCCCNC(=O)OC` [compound 72], for which the IC50 in test [1] (setting [2]) worked out at 0.11 ± 0.01 µM; on Human sEH (HsEH) (Table 1) it was 0.48 ± 0.01 µM. The matching figures for `O=C(NC(=O)c1ccc(Cl)cc1)NC1CCCCC1` [compound 257]: 0.05 ± 0.01 µM and 0.1 ± 0.04 µM. As to `O=C(NC1CCCCCCCCCCC1)NC12CC3CC(CC(C3)C1)C2` [compound 413], the IC50 in test [1] (setting [2]) amounted to 0.05 ± 0.01 µM; at Human sEH (HsEH) (Table 1) it was 0.1 ± 0.01 µM. The matching figures for `CCCCCCCCCCNC(=O)Nc1cccc(Cl)c1` [compound 172]: 0.12 ± 0.01 µM and 0.3 ± 0.01 µM. The corresponding values for `O=C(NCC12CC3CC(CC(C3)C1)C2)NC12CC3CC(CC(C3)C1)C2` [compound 412] are 0.05 ± 0.01 µM and 0.1 ± 0.01 µM. The matching figures for `CCCCCCCCCCNC(=O)Nc1ccccc1` [compound 148]: 0.21 ± 0.01 µM and 0.61 ± 0.02 µM.

With `OC[C@H]1O[C@@H]1c1ccccc1` [R=C6H5, R′=H, X—Y=CH—OH, R, R], the IC50 in test [1] (setting [3]) was 1100 ± 23 µM. Turning to `O=C(c1ccccc1)C1OC1c1ccccc1` (racemic) [R=C6H5, R′=C6H5, X—Y=C═O, ±], the IC50 is 2.9 ± 0.3 µM in test [1] (setting [3]) and 0.3 ± 0.1 µM on Human sEH (HsEH) (Table 2). `C[C@H](NC(=O)NC1CCCCC1)c1ccccc1` [compound 544]: the IC50 in test [1] (setting [2]) is 0.05 ± 0.01 µM; at Human sEH (HsEH) (Table 1), 0.1 ± 0.01 µM. The matching figures for `O=C(NC1CCCCC1)OCc1c2ccccc2cc2ccccc12` [compound 263]: 3 ± 0.3 µM and 0.33 ± 0.06 µM. Consider `COC(c1ccccc1)C1OC1c1ccccc1` (racemic) [R=C6H5, R′=C6H5, X—Y=CH—OCH3, ±], for which the values for the IC50 (in test [1] (setting [3]); at Human sEH (HsEH) (Table 2)) were 103 ± 5 µM and 34 ± 1 µM, respectively. Take `COc1ccc(CCNC(=O)NC2CCCCC2)cc1OC` [compound 384]: the results for the IC50 (in test [1] (setting [2]); on Human sEH (HsEH) (Table 1)) were 0.05 ± 0.01 µM and 1 ± 0.2 µM, respectively.

As for `CN(C)c1ccc(NC(=O)NC2CCCCC2)cc1` [compound 362], the IC50 in test [1] (setting [2]) came to 0.05 ± 0.01 µM; on Human sEH (HsEH) (Table 1), 1.5 ± 0.1 µM. Regarding `Cc1ccc(C(=O)C2OC2c2ccc(-c3ccccc3)cc2)cc1` (racemic) [R=4-C6H5—C6H4, R′=4-CH3—C6H4, X—Y=C═O, ±], the values for the IC50 (in test [1] (setting [3]); on Human sEH (HsEH) (Table 2)) were 0.1 ± 0.01 µM and 0.19 ± 0.03 µM, respectively. The matching figures for `Cc1ccc(C(O)C2OC2c2ccc(-c3ccccc3)cc2)cc1` (racemic): 0.09 ± 0.01 µM and 0.15 ± 0.02 µM. Consider `O=C(NC1CCCCC1)OCCCCc1ccc([N+](=O)[O-])cc1` [compound 460], for which the IC50 turned out to be 0.1 ± 0.02 µM in test [1] (setting [2]) and 0.18 ± 0.01 µM on Human sEH (HsEH) (Table 1).

As for `O=C(c1ccccc1)C1OC1c1ccc(-c2ccccc2)cc1` (racemic) [R=4-C6H5—C6H4, R′=C6H5, X—Y=C═O, ±], the IC50 stood at 0.14 ± 0.01 µM in test [1] (setting [3]) and 0.2 ± 0.01 µM at Human sEH (HsEH) (Table 2). Turning to `O=C(Nc1ccc(F)cc1)NC1CCCCC1` [compound 60], the IC50 in test [1] (setting [2]) came out at 0.78 ± 0.02 µM; on Human sEH (HsEH) (Table 1), 0.43 ± 0.02 µM. The matching figures for `O=C(NCc1ccccc1)NC1CCCCC1` [compound 270]: 0.05 ± 0.01 µM and 1.9 ± 0.1 µM. The matching figures for `Cc1ccc(NC(=O)NC2CCCCC2)cc1` [compound 108]: 0.13 ± 0.01 µM and 0.17 ± 0.01 µM. On to `O=C(c1ccccc1)C1OC1c1ccc(F)cc1` (racemic) [R=4-F-C6H4, R′=C6H5, X—Y=C═O, ±], for which the IC50 in test [1] (setting [3]) was found to be 1.3 ± 0.3 µM; at Human sEH (HsEH) (Table 2), 0.3 ± 0.1 µM. As for `Nc1ccc(NC(=O)NC2CCCCC2)cc1` [compound 385], the IC50 stood at 0.17 ± 0.02 µM in test [1] (setting [2]) and 2.2 ± 0.1 µM at Human sEH (HsEH) (Table 1). The corresponding values for `CCCCCCCCNC(=O)NC(C)C` [compound 183] are 1.06 ± 0.07 µM and 5.9 ± 0.3 µM. The matching figures for `CCCCCCNC(=O)Nc1ccc(C(C)C)cc1` [compound 287]: 0.09 ± 0.01 µM and 0.1 ± 0.01 µM. The corresponding values for `O=C(NCC1CCCCC1)C1CCCCC1` [compound 374] are 0.25 ± 0.01 µM and 2.03 ± 0.07 µM. Regarding `O=C(NC1CCCCC1)OC1C2CC3CC(C2)CC1C3` (stereo not drawn) [compound 260], the IC50 was 0.06 ± 0.01 µM in test [1] (setting [2]) and 0.1 ± 0.01 µM at Human sEH (HsEH) (Table 1). As for `CCCCCCc1ccc(NC(=O)NC2CCCCC2)cc1` [compound 501], the IC50 is 0.05 ± 0.01 µM in test [1] (setting [2]) and 0.16 ± 0.01 µM at Human sEH (HsEH) (Table 1). For `O=[N+]([O-])c1ccc(C2OC2CO)cc1` (racemic) [R=4-NO2—C6H4, R′=H, X—Y=CH—OH, ±], the IC50 in test [1] (setting [3]) came to 5 ± 1 µM.

Take `O=C(NCCC1=CCCCC1)NCc1ccccc1` [compound 471]: the IC50 in test [1] (setting [2]) turned out to be 0.25 ± 0.03 µM; at Human sEH (HsEH) (Table 1), 2.2 ± 0.1 µM. The matching figures for `O=C(Nc1ccc(Br)cc1)NC1CCCCC1` [compound 65]: 0.17 ± 0.01 µM and 0.11 ± 0.01 µM. The corresponding values for `O=C(O)CCCCCCCCCCCNC(=O)Nc1ccc2ccccc2c1` [compound 283] are 0.7 ± 0.2 µM and 1.12 ± 0.03 µM.

In the case of `C=C(C)CCOC(=O)NC1CCCCC1` [compound 277], the IC50 was 0.12 ± 0.01 µM in test [1] (setting [2]) and 0.22 ± 0.02 µM on Human sEH (HsEH) (Table 1). The corresponding values for `O=C(NCCCc1ccccc1)NC1CCCCC1` [compound 104] are 0.04 ± 0.01 µM and 0.29 ± 0.01 µM. The corresponding values for `CCOC(CNC(=O)Nc1ccc(C(C)C)cc1)OCC` [compound 159] are 0.59 ± 0.03 µM and 3.4 ± 0.04 µM. In the case of `[O-][S+](c1ccccc1)C1OC1c1ccc(-c2ccccc2)cc1` (racemic) [R=4-C6H5—C6H4, R′=C6H5, X—Y=S═O, ±], the IC50 was determined as 73 ± 5 µM in test [1] (setting [3]) and 70 ± 3 µM at Human sEH (HsEH) (Table 2). Consider `O=C(NC1CCCCC1)NC1CCCc2ccccc21` (stereo not drawn) [compound 434], for which the values for the 50% inhibitory concentration (IC50) (in test [1] (setting [2]); on Human sEH (HsEH) (Table 1)) were 0.05 ± 0.01 µM and 0.1 ± 0.01 µM, respectively.

For the compound `O=C(NC1CCCCC1)OCCCCC1CCCCC1` [compound 276], the figures for the IC50 (in test [1] (setting [2]); on Human sEH (HsEH) (Table 1)) were 1.1 ± 0.1 µM and 0.34 ± 0.02 µM, respectively.

In the case of `CCCCCCCCCCCCCC(=O)NC1CCCCC1` [compound 515], the IC50 in test [1] (setting [2]) was found to be 0.19 ± 0.05 µM. For `O=C(Nc1ccc(Cl)c(Cl)c1)Nc1ccc(Cl)c(Cl)c1` [compound 299], the IC50 on Human sEH (HsEH) (Table 1) is 0.26 µM. The same measure, in the same setting: under `CCCCCCCCNC(=O)NCCCCCC` [compound 175] stands 0.24 ± 0.01 µM. Take `O=[N+]([O-])c1ccc([C@H]2O[C@@H]2CO)cc1` [R=4-NO2—C6H4, R′=H, X—Y=CH—OH, R, R]: the IC50 in test [1] (setting [3]) was 1200 ± 25 µM. On to `CC(C)c1ccc(NC(=O)NC2CCCCC2)cc1` [compound 66], for which the IC50 in test [1] (setting [2]) amounted to 0.09 ± 0.01 µM. Turning to `O=C(NC1CCCCCCC1)NC1CCCCC1` [compound 58], the IC50 in test [1] (setting [2]) worked out at 0.05 ± 0.01 µM.

Turning to `CCCCCCCCCCCCNC(=O)OC1CCCCC1` [compound 514], the IC50 in test [1] (setting [2]) came to 0.27 ± 0.01 µM.

As to `OC[C@@H]1O[C@H]1c1ccccc1` [R=C6H5, R′=H, X—Y=CH—OH, S, S], in test [1] (setting [3]), the IC50 turned out to be 2400 ± 46 µM. As to `O=C(Nc1cccc(Cl)c1)NC1CCCCC1` [compound 44], the IC50 in test [1] (setting [2]) is 0.07 ± 0.01 µM.

These data come from patent publication US6756210B2, “Linoleic acid diol and glucuronide conjugate levels as diagnostic markers of disorders of abnormal regulation of cytochrome P450 metabolism of unsaturated fatty acids” (The Regents of the University of California, priority 2001, dated 2004).
